The values below come from patent US7632930B2, “Oligosaccharide derivative” (Sankyo Company Limited, priority 2003, dated 2009).

Assay [1] deals with T1, human pancreatic α-amylase (HPA) (Homo sapiens, UniProt P04746).
T1 construct: purchased International Reagents Caribzyme AMY
T1 sequence (P04746 16-511): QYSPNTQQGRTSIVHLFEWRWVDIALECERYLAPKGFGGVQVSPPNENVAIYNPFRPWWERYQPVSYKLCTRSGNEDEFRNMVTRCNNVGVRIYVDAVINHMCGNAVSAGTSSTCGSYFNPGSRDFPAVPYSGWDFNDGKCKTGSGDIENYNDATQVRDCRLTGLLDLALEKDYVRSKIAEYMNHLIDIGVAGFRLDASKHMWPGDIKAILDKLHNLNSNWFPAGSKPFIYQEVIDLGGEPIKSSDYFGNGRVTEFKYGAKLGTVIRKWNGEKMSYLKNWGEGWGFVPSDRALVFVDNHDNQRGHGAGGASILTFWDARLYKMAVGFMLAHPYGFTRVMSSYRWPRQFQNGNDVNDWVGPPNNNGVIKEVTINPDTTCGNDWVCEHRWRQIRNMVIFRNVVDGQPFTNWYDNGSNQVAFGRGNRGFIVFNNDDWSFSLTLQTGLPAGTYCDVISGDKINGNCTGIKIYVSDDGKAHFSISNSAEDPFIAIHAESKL
Put plainly: α-Amylase inhibitory action (blue starch, Neo-Amylase Test). The assay is classed as biochemical. The following applies: final concentration required to inhibit the activity of the HPA solution by 50%; 37° C.
Method: “Caribzyme AMY” (International Reagents) was used for the human pancreatic α-amylase (HPA). Purified water was added to the commercially available HPA and dissolved to a concentration of 200 IU/l to prepare an α-amylase solution. The activity of the α-amylase was measured using a commercially available α-amylase assay reagent (“Neo-Amylase Test Daiichi”, Daiichi Pure Chemicals).
Each test compound was prepared with distilled water to a final concentration of 0.1 to 30 μg/ml, respectively.
After incubating for 10 minutes at 37° C., a blue starch tablet (“Neo-Amylase Test Daiichi”, Daiichi Pure Chemicals) was added followed by stirring for about 10 seconds with a mixer and heating for 30 minutes at 37° C. […] In addition, distilled water was added instead of α-amylase for use as a blank. […] Inhibition rate(%)=[1−{(Absorbance of control)−(absorbance of blank)}/{(absorbance when inhibitor added)−(absorbance of blank)}]×100

Assay [2] deals with normal mice (ddY mice). The assay is described as follows: Postprandial hyperglycemia inhibitory action (cornstarch loading). The assay is classed as in vivo. To be noted: ddY mice fasted 20 hours; oral 0.3 mg (test compound)/2 g (cornstarch)/kg; AUC of increase in blood glucose levels, 0.5-3 hours after dosing, vs control group. As to the method: Commercially available normal mice (ddY mice, males, age 8 weeks at the time of testing, supplied by Japan SLC).
(§1) (2) Experimental Methods and Results
For the dose group, a test compound and commercially available cornstarch were mixed well with 0.5% carboxymethyl cellulose to prepare a suspension that was orally administered at 0.3 mg (test compound)/2 g (cornstarch)/kg (body weight) to five mice that had been fasted in advance for 20 hours. The control group was administered with a similar suspension in the same manner with the exception of not containing the test compound.
Blood glucose levels were measured using a blood glucose analyzer (Glucoloader GXT, A & T). Inhibition rate(%)=[1−(dose group AUC/control group blood glucose increase AUC)]×100

Assay [3] deals with genetically obese diabetic mice (C57BL/KsJ-db/db mice). The assay is described as follows: Blood glucose lowering action in genetically obese diabetic mice. The assay is classed as in vivo. To be noted: 0.005% (w/w) in diet, freely ingested for 1 week, vs control group.
Excerpt: Commercially available, genetically obese diabetic mice (C57BL/KsJ-db/db mice, males, age 16 weeks at the time of testing, supplied by Clea Japan).
as §1
A test compound was mixed into a refined laboratory animal diet (carbohydrate content: 65.95% (w/w), Oriental Yeast) to a test compound concentration of 0.005% (w/w) and allowed to be freely ingested by diabetic mice for 1 week in groups of 5 mice per group. A control group was allowed similar unrestricted access to the same feed with the exception of not containing the test compound.
Blood glucose levels were measured before the start of dosing and one week after the start of dosing. Blood samples were collected from a tail vein and blood glucose levels were measured using a blood glucose analyzer (Glucoloader GXT, A & T) to calculate the blood glucose lowering rate (%) according to the following formula. Blood glucose lowering rate(%)=[1−(compound dose group blood glucose level/control group blood glucose level)]×100

pIC50: −log10 of the molar value.

As for `C[C@H]1O[C@@H](O[C@H]2[C@H](O)[C@@H](O)[C@@H](O[C@H]3[C@H](O)[C@@H](CO)N[C@@H]3CO)O[C@@H]2CO)[C@H](O)[C@@H](O)[C@@H]1O` [Example 7, (2R,3R,4R,5R)-2,5-Dihydroxymethyl-4-hydroxypyrrolidin-3-yl 4-O-(6-deoxy-β-D-glucopyranosyl)-α-D-glucopyranoside], the pIC50 (commonly the IC50 on a negative log10 scale, so that one unit is a factor of ten) in assay [1] was 5.07.

In assay [1], `C[C@H]1O[C@@H](O[C@H]2[C@H](O)[C@@H](O)[C@@H](O[C@H]3[C@H](O)[C@@H](O)[C@H](N)[C@@H]3CO)O[C@@H]2CO)[C@H](O)[C@@H](O)[C@@H]1O` [Example 15, (1R,2S,3R,4R,5R)-1-Amino-2,3-dihydroxy-5-hydroxymethyl-cyclopent-4-yl 4-O-(6-deoxy-β-D-glucopyranosyl)-α-D-glucopyranoside] had a pIC50 of 5.90.

`C[C@H]1O[C@@H](O[C@H]2[C@H](O)[C@@H](O)[C@@H](O[C@H]3[C@H](O)CN[C@@H]3CO)O[C@@H]2CO)[C@H](O)[C@@H](O)[C@@H]1O` [Example 2, (2R,3R,4R)-4-Hydroxy-2-(hydroxymethyl)pyrrolidin-3-yl 4-O-(6-deoxy-β-D-glucopyranosyl)-α-D-glucopyranoside] gave a pIC50 in assay [1] of 6.34. Also, the “Inhibition Rate” value in assay [2] turned out to be 64%. In addition, in assay [3], the “Blood Glucose Lowering Rate” value turned out to be 47%.

Regarding `C[C@H]1O[C@H](O[C@H]2[C@H](O)[C@@H](O)[C@@H](O[C@H]3[C@H](O)[C@@H](O)[C@H](N)[C@@H]3CO)O[C@@H]2CO)[C@H](O)[C@@H](O)[C@@H]1O` [Example 14, (1R,2S,3R,4R,5R)-1-Amino-2,3-dihydroxy-5-hydroxymethyl-cyclopent-4-yl 4-O-(6-deoxy-α-D-glucopyranosyl)-α-D-glucopyranoside], the pIC50 in assay [1] is 5.67.

`C[C@H]1O[C@H](O[C@H]2[C@H](O)[C@@H](O)[C@@H](O[C@H]3[C@H](O)CN[C@@H]3CO)O[C@@H]2CO)[C@H](O)[C@@H](O)[C@@H]1O` [Example 1, (2R,3R,4R)-4-Hydroxy-2-(hydroxymethyl)pyrrolidin-3-yl 4-O-(6-deoxy-α-D-glucopyranosyl)-α-D-glucopyranoside] showed a pIC50 in assay [1] of 5.80.

As for `C[C@H]1O[C@H](O[C@H]2[C@H](O)[C@@H](O)[C@H](O[C@H]3[C@H](O)CN[C@@H]3CO)O[C@@H]2CO)[C@H](O)[C@@H](O)[C@@H]1O` [Example 13, (2R,3R,4R)-4-Hydroxy-2-hydroxymethyl-pyrrolidin-3-yl 4-O-(6-deoxy-α-D-glucopyranosyl)-β-D-glucopyranoside], the pIC50 in assay [1] is 5.04.

The molecule `COC[C@H]1O[C@@H](O[C@H]2[C@H](O)[C@@H](O)[C@@H](O[C@H]3[C@H](O)CN[C@@H]3CO)O[C@@H]2CO)[C@H](O)[C@@H](O)[C@@H]1O` [Example 8, (2R,3R,4R)-4-Hydroxy-2-hydroxymethyl-pyrrolidin-3-yl 4-O-(6-methoxy-6-deoxy-β-D-glucopyranosyl)-D-glucopyranoside] had a negative logarithm of the IC50 (pIC50) in assay [1] of 6.07.
